# Measurements reported in patent publication US20240182491A1, “SUBSTITUTED FUSED BICYCLIC MACROCYCLIC COMPOUNDS AND RELATED METHODS OF TREATMENT” (Alkermes, Inc., priority 2021, published 2024).
# Biological target: T1, human orexin-2 receptor (OX2R) (Homo sapiens, UniProt O43614)
# T1 construct: expressed in transfected cells
# T1 sequence (O43614 1-444): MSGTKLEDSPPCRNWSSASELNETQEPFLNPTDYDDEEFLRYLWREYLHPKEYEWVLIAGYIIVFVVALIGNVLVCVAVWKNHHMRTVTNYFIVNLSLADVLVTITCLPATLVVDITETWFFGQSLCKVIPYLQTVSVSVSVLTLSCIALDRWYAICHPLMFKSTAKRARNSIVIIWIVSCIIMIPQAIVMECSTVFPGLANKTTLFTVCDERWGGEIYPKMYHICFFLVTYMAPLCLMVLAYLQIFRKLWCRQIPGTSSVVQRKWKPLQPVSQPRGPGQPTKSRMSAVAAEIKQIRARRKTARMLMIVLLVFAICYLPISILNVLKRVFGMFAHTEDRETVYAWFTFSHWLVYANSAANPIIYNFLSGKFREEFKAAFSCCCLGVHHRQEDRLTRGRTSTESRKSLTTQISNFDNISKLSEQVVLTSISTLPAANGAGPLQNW
# Experiment: Human OX2R IP1 assay
# Assay type: cell-based
# Conditions: T-Rex CHO cells stably overexpressing human OX2R; inositol monophosphate (IP1) accumulation, 1 hr at 37 degrees C; mean EC50
# Protocol: T-Rex CHO cells stably overexpressing the human orexin-2 receptor (OX2R) were induced overnight with 1 μg/mL of doxycycline in a T225 flask. 24 hours post induction, cells were lifted with accutase and plated into a 384-well proxy plate at 30,000 cells/well. Cells were then treated with different test compounds in 1× stimulation buffer containing 10 mM Hepes, 1 mM CaCl2), 0.5 mM MgCl2, 4.2 mM KCl, 146 mM NaCl, 5.5 mM glucose, and 50 mM LiCl, pH 7.4, for 1 hr at 37 degrees C. Following incubation, the reaction was terminated by the addition of detection mix, which is composed of IP1-d2 and anti-IP1-cryptate diluted in lysis buffer as well as 1× stimulation buffer. The plates were allowed to incubate for 1 hour at room temperature and were then read in the EnVision® multimode plate reader, measuring inositol phosphate levels.
# Cisbio IP1 is a cell-based functional assay quantifying the accumulation of inositol monophosphate (IP), a metabolite released as a result of orexin 2 receptor activation through the phospholipase C-Gq signaling pathway. This is a competitive immunoassay in which the IP1 produced by the cells upon receptor activation competes with the IP1 analog coupled to the d2 fluorophore (acceptor) for binding to an anti-IP1 monoclonal antibody labeled with Eu cryptate (donor). The measured HTRF-FRET based signal is inversely proportional to the IP1 concentration produced.
# The EC50 values reported in Table 2 were obtained according to the human OX2R IP1 assay described above. Data are the mean EC50 values ±S.E.M.
row,EC50,SMILES
1,100 to 1000 nM,O=C1COc2cc3[nH]ncc3cc2C2CCC(CC2)OCC2[C@@H](NS(=O)(=O)C(F)(F)F)CCN12 (stereo partly drawn) [Compound 5]
2,100 to 1000 nM,CS(=O)(=O)N[C@H]1CCN2C(=O)COc3cc4[nH]ncc4cc3[C@H]3CC[C@H](CC3)OC[C@@H]12 [Compound 6]
3,< 100 nM,CS(=O)(=O)N[C@H]1CCCN2C(=O)COc3cc4[nH]ncc4cc3[C@H]3CC[C@H](CC3)OC[C@@H]12 [Compound 10]
